“Also recorded” adds a separate entry of the source.

In one test the target is CDK9 (Homo sapiens, UniProt P50750). Kind of test: Kinase inhibition profiling (filter binding assay with γ-33P-ATP).
For test [1], the system named is NU-DHL-1 diffuse large B-cell lymphoma (DLBCL) cells. The test is described as follows: CIVO microinjection, staining for MCL-1 and cleaved caspase-3. Type of test: in vivo, mice. As for the experimental part: Mice were enrolled into CIVO drug studies when the tumor volume reached approximately 1000 mm^3. […] A fluorescent tracking marker (FTM) was added to each drug reservoir in vehicle for delivery along with each drug or drug combination. […] Total amounts of agents injected are tabulated below in Table 4.
The cells were stained for cleaved caspase-3 (CC3) (shown in red) as a marker of apoptosis.

The next test has as its system SKM1 AML xenografts. Kind of test: Xenograft tumor growth. Type of test: in vivo, NOD SCID. To be noted: Voruciclib 200 mpk PO, ABT 199 10 mpk PO, 6 on/1 off; by day 22.
The test system of the next test is Toledo cells. The test is described as follows: CIVO microinjection, CC3 expression. The arrangement: species or system mice. The settings on record: mouse, in vivo. On the procedure: (§1) Mice were enrolled into CIVO drug studies when the tumor volume reached approximately 1000 mm^3. Microinjection studies were performed using the CIVO device as previously described (Klinghoffer et al, Science Translational Medicine 2015) The device was configured with 6 injection needles set for a 6 mm injection length and a total volume delivery of 3 μl. A fluorescent tracking marker (FTM) was added to each drug reservoir in vehicle for delivery along with each drug or drug combination. All micro-doses were equivalent to or lower than what would be allowed under FDA guidelines for Exploratory IND (Investigational New Drug) studies and by solubility of drug into vehicle. Total amounts of agents injected are tabulated below in Table 4.

The test system of a further test is RIVA cells. Kind of test: CIVO microinjection, CC3 expression. The arrangement: species or system mice. The settings on record: mouse, in vivo. On the procedure:
as §1

The next test has as its system MV-4-11. The test is described as follows: Western blot of treated AML cells. Type of test: cell-based. On the procedure:
(§2) Cell lines shown in Table 1, adherent or suspension, were treated in 6-well dishes or T10 flasks respectively, seeded at one million per ml density prior to treatment in total volumes of 3-10 ml. All agents used for in vitro cell treatments were formulated in water/DMSO to achieve required concentrations (as stated in respective figure labels/legends) with DMSO concentrations not exceeding 0.01%. Drug sources are indicated in table under ‘CIVO microinjection studies’. Cells were harvested at experimental time points: 2, 6, or 24 hours post treatment as indicated in respective figures, first by washing cells twice in ice-cold PBS in 15 ml falcon tubes, centrifugation at 1000 rpm for 5 mins followed by lysis of the respective cell pellets as described in section below. Note: Drug resistant NUDHL1 Dox 1000 nM and Toledo Dox 1000 nM cell lines were generated at Presage by culturing parental lines in media with stepwise increments in Doxorubicin concentration over several passages. These cells were used to generate xenografts when resistance to 1 uM Dox was achieved.
(§3) Protein lysates were prepared by adding ice-cold 1×RIPA Buffer (from 10×, Millipore) with 1×-3× Halt protease and phosphatase inhibitor cocktail (100×, Pierce) to cell pellets, followed by pulse sonication (˜3-5 secs) three times. Lysates were cleared by centrifugation at 14K rpm for 15-20 mins and the supernatant (lysate) was collected for further analysis. To prepare lysates from cryopreserved xenograft tumor tissue, tissue was first homogenized using a hand-held tissue homogenizer (Cole Palmer) in above lysis buffer followed by pulse sonication and centrifugation as described above. Above steps were carried out under ice cold conditions. Protein samples were quantified using Bradford assay (Biorad) at 1:10 or higher dilutions using appropriate blank controls with 1×RIPA. 20-25 micrograms of protein from each sample were subject to SDS-PAGE using BOLT 4-12% Bis-Tris gels (Thermofisher) and transferred to either 0.45 or 0.2 micron pore size membranes (as applicable based on protein molecular size), and either nitrocellulose (NC) or pvdf (Thermofisher) using manufacturer's protocol, blocked for one hour in 5% milk at room temperature, probed with primary antibodies (Table 2) at 4 deg C. overnight and corresponding HRP-conjugated secondary antibodies (Jackson Immunoresearch, 1:10,000-1:20,000 dilutions) for 1 hour at room temperature. Three PBS/0.01% Tween-20 washes (5-10 mins each) were carried out after each antibody incubation. ECL chemiluminescent substrate (Pierce or GE) and autoradiographic film (Thermofisher) was used for detection of protein signals.
(§4) At the given time points, cells were lysed and subjected to western blot analysis with antibodies that specifically recognize phosphorylated RNA pol II (pSer2), MCL-1, cleaved PARP, and Beta-actin. […] Cleaved PARP (cPARP) may be used as a biomarker of apoptosis.
(§5) At the given time points, cells were lysed and subjected to western blot analysis with antibodies that specifically recognize phosphorylated RNA pol II (pSer2), MCL-1, cleaved PARP, and Beta-actin. […] Venetoclax is observed to induce MCL-1 upregulation in all three cell lines.
(In general: In western blotting, separated proteins are transferred to a membrane and probed.)

The next test deals with OCI-AML-3. The test is described as follows: Western blot of treated AML cells. In kind it is cell-based. On the procedure: as §2, §3, §4, §5
In a further test the test system is SKM-1. Kind of test: Western blot of treated AML cells. In kind it is cell-based. On the procedure: as §2, §3, §4, §5
Test [2] relates to DLBCL xenograft tumors (OCILY10). The test is described as follows: MCL1 expression in xenograft tumors after oral dosing. Type of test: in vivo, mice. The settings on record: 100 mpk, oral gavage daily for 5 days, 4 h post final dose. As for the experimental part: as §3, with “Three PBS/0.01% Tween-20 washes (5-10 mins each) were carried out after each antibody incubation. ECL chemiluminescent substrate (Pierce or GE) and autoradiographic film (Thermofisher) was used for detection of protein signals.” left out

In a further test the test system is OCI Ly10 model of DLBCL. The test is described as follows: Western blot of treated cells. In kind it is cell-based. The settings on record: 5 uM voruciclib, 50 nM venetoclax; 24 h. As for the experimental part:
as §2, with “These cells were used to generate xenografts when resistance to 1 uM Dox was achieved.” left out
Protein lysates were prepared by adding ice-cold 1×RIPA Buffer (from 10×, Millipore) with 1×-3× Halt protease and phosphatase inhibitor cocktail (100×, Pierce) to cell pellets, followed by pulse sonication (˜3-5 secs) three times. […] Protein samples were quantified using Bradford assay (Biorad) at 1:10 or higher dilutions using appropriate blank controls with 1×RIPA. […]

For test [3], the system named is HCC1187 triple negative breast cancer (TNBC) xenograft model. The test is described as follows: CIVO microinjection, MCL-1 and CC3 staining. Type of test: in vivo, mice. The settings on record: marker of apoptosis. As for the experimental part:
as §1
A drug screen was performed to test multiple drugs simultaneously.
FIG. 11 depicts a similar experiment performed on the HCC1187 triple negative breast cancer (TNBC) xenograft model. […] Cells were then stained for CC3 expression (shown in red) as a marker of apoptosis.
FIGS. 20A-20D depicts the HCC1187 triple negative breast cancer (TNBC) xenograft model. Briefly, cells were treated with vehicle, voruciclib alone, ixazomib alone, or voruciclib and ixazomib in combination. Cells were then stained for CC3 expression (shown in red) as a marker of apoptosis.

Where [4] appears, read: voruciclib 1.5 and 5.0 micromolar, 2, 6, or 24 h.
The mark [5] stands for this setting: voruciclib 1.5 micromolar, venetoclax 100 nM, 24 h.

Chain of CDK9 (P50750 whole entry): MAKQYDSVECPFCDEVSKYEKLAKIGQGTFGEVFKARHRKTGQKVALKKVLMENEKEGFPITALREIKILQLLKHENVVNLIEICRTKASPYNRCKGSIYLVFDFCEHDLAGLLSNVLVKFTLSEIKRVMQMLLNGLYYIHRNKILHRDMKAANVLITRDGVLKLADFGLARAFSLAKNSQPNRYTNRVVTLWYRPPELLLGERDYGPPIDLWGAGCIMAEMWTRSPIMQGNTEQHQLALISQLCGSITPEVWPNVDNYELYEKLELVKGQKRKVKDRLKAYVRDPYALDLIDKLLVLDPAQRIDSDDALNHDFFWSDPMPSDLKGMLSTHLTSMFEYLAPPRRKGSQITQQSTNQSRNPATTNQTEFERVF
Chain of CDK9 (O60563 whole entry partner): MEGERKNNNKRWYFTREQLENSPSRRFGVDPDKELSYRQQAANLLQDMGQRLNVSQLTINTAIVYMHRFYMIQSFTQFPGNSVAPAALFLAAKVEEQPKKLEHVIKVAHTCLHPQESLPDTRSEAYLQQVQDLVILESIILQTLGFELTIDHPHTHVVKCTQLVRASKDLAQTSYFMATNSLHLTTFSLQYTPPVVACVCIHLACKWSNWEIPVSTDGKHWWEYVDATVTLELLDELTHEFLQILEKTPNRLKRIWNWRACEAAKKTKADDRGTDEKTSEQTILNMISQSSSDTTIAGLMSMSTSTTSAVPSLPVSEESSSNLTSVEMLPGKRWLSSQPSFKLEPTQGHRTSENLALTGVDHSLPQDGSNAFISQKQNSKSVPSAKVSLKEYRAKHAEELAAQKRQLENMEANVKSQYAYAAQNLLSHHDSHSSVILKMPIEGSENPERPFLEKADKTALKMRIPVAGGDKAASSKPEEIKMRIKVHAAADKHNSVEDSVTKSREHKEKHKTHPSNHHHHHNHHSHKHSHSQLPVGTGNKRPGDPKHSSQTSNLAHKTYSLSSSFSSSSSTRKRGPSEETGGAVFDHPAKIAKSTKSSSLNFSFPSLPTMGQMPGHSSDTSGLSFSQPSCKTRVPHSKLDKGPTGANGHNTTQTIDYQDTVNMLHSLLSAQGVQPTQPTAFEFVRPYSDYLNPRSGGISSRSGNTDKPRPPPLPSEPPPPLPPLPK
Method for CDK9: The testing facility was Reaction Biology Corp. Kinase activity was measured using a filter binding assay with radioactive γ-33P-ATP as phosphate donor. The ATP concentration was near the Km for respective kinase. For each kinase, an IC50 value were calculated from a 10-point concentration curve of the test article and converted to Ki values.
Method for SKM1 AML xenografts: Mice were enrolled for study when tumors reached an average volume of 150-200 mm^3. Tumor volume was calculated as V=length×width×height, all three dimensions measured using digital calipers along with body weight. Animals were removed from the study when—any one of the three measured dimensions of the tumor exceeding 2 cm, volume exceeding 2500 mm^3, ulceration or body weight loss greater than 20%.

With `CN1CC[C@@H](c2c(O)cc(O)c3c(=O)cc(-c4ccc(C(F)(F)F)cc4Cl)oc23)[C@@H]1CO` (relative stereo) [voruciclib, (+)-trans-2-(2-Chloro-4-trifluoromethylphenyl)-5,7-dihydroxy-8-(2-hydroxymethyl-1-methylpyrrolidin-3-yl)-chromen-4-one], at CDK9, the “inhibition of CDK9” value is given as “strongest inhibition”. Further, the “expression of CC3 (cleaved caspase-3)” value in [1] (marker of apoptosis) is on record as “slight increased; also recorded: slight effect”. In addition, the “expression of MCL-1” value in test [1] (staining, versus vehicle) was “decreased”. The normalized tumor volume result in the test on SKM1 AML xenografts was “slightly lower”. In addition, the CC3 expression entry is listed as “slight effect” in the test on Toledo cells, “slight effect” with RIVA cells and “little to no increase” in test [3]. The MCL-1 entry with MV-4-11 (setting [4]) is “suppresses”; with MV-4-11 (setting [5]), “dampens”; in the test with OCI-AML-3 (setting [4]), “suppresses”; in the test on OCI-AML-3 (setting [5]) it was “dampens”; in the test with SKM-1 (setting [4]), “suppresses”; in the test with SKM-1 (setting [5]), “dampens”. For the same compound, the “apoptosis (cleaved PARP)” value is “induces apoptosis” in the test on MV-4-11 (setting [4]), “induces apoptosis” with OCI-AML-3 (setting [4]), “induces apoptosis” with SKM-1 (setting [4]) and “neither compound significantly induces apoptosis as a single agent” with OCI Ly10 model of DLBCL. Besides, the “apoptosis (PARP)” value in the test on MV-4-11 (setting [5]), in the test with OCI-AML-3 (setting [5]) and in the test on SKM-1 (setting [5]) was “neither agent alone induces apoptosis” throughout. The “MCL1 expression in xenograft tumors” value in test [2] is given as “suppressed”.
